pIC50: −log10 of the molar value. Several values for one entry are separate records, joined by “and”; a condition that tells them apart may be missing. Identical values can stand only once. Like-named read-outs stand apart in the source and are kept apart here.

For experiment [1], the target named is FGFR4 (GST-FGFR4(388-802)) (Homo sapiens (Human), UniProt P22455). As to the kind of experiment: In-vitro biochemical kinase assay for FGFR4 (Caliper microfluidic mobility shift).
The next experiment has as its target Tel-FGFR4 (Homo sapiens (Human), UniProt P22455). Put plainly: In vitro cellular kinase assay for FGFR4 (BaF3-Tel-FGFR4 cells, MSD capture ELISA of tyrosine phosphorylation). Type of experiment: cell-based. A general note: ELISA stands for enzyme-linked immunosorbent assay.
Where [2] appears, read: read-out: Biochemical FGFR4 IC50.
The mark [3] stands for this setting: BaF3-Tel-FGFR4 cells, 1 hour incubation, read-out: Cellular BaF3 FGFR4 IC50.
[4] abbreviates: biochemical FGFR4 assay, read-out: Biochemical IC50.
The mark [5] stands for this setting: Cellular BaF3 FGFR4 assay, read-out: Cellular IC50.

Tel-FGFR4, sequence (P22455 other isoform, or with tags, fused parts or gaps): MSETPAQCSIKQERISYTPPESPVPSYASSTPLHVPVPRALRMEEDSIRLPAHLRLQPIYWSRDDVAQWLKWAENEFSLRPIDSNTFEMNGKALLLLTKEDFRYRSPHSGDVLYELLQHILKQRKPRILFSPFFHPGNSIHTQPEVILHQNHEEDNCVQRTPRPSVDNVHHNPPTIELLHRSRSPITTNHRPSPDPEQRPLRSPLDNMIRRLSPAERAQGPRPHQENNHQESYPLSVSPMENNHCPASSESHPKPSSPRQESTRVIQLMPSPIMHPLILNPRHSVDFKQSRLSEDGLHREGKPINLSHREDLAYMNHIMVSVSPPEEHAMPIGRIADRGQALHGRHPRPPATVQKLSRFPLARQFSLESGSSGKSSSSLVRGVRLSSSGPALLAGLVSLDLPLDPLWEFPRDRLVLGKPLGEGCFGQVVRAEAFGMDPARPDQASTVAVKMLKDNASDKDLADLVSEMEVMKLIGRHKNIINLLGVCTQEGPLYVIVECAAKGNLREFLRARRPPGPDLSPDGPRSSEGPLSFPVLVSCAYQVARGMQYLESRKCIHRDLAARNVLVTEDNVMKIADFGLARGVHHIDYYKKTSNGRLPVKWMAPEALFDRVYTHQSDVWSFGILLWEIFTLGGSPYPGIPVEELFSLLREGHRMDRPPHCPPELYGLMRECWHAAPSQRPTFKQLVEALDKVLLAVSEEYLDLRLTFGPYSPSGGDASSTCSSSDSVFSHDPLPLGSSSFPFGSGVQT
FGFR4 (GST-FGFR4(388-802)), sequence (P22455 388-802): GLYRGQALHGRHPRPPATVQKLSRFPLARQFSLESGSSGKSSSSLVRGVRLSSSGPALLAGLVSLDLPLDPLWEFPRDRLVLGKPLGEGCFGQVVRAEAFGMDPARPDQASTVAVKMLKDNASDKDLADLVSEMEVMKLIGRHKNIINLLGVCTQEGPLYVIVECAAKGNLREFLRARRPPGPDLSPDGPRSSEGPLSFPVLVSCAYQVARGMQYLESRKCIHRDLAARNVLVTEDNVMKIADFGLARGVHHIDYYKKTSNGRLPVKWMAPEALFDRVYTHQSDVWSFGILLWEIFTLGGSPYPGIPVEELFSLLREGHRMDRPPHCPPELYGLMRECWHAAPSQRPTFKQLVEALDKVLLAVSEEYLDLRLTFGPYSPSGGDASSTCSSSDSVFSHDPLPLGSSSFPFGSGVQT

Broadly, the pIC50 is −log10 of the IC50, conventionally taken in molar units. Regarding `COCCNc1cc(NC(=O)N2CCCc3cc(C4CCN(CC(F)F)CC4)c(C=O)nc32)ncc1C#N` [Example 267, N-(5-cyano-4-((2-methoxyethyl)amino)pyridin-2-yl)-6-(1-(2,2-difluoroethyl)piperidin-4-yl)-7-formyl-3,4-dihydro-1,8-naphthyridine-1(2H)-carboxamide], the pIC50 in experiment [1] (setting [2]) was 8.92; at Tel-FGFR4 (setting [3]) it was 7.78.

Turning to `COc1cc(NC(=O)N2CCCc3cc(CN4CCCC4(C)C)c(C=O)nc32)ncc1C#N` [N-(5-cyano-4-methoxypyridin-2-yl)-6-((2,2-dimethylpyrrolidin-1-yl)methyl)-7-formyl-3,4-dihydro-1,8-naphthyridine-1(2H)-carboxamide], the negative-log IC50 (pIC50) was 6.36 in experiment [1] (setting [4]) and less than 5.52 on Tel-FGFR4 (setting [5]).

Regarding `CC(=O)N(C)Cc1cc2c(nc1C=O)N(C(=O)Nc1cc(OCC(C)C)c(C#N)cn1)CCC2` [N-(5-cyano-4-isobutoxypyridin-2-yl)-7-formyl-6-((N-methylacetamido)methyl)-3,4-dihydro-1,8-naphthyridine-1(2H)-carboxamide], the negative logarithm of the IC50 (pIC50) was 8.89 in experiment [1] (setting [4]) and 8.22 at Tel-FGFR4 (setting [5]).

Take `CC(C)Oc1cc(NC(=O)N2CCCc3cc(C(F)F)c(C=O)nc32)ncc1C#N` [N-(5-cyano-4-isopropoxypyridin-2-yl)-6-(difluoromethyl)-7-formyl-3,4-dihydro-1,8-naphthyridine-1(2H)-carboxamide]: the pIC50 in experiment [1] (setting [4]) was 8.92; at Tel-FGFR4 (setting [5]) it was 7.68.

Consider `COc1nc(NC(=O)N2CCCc3cc(CN4CCN(C)CC4=O)c(C=O)nc32)ncc1C#N` [N-(5-cyano-4-methoxypyrimidin-2-yl)-7-formyl-6-((4-methyl-2-oxopiperazin-1-yl)methyl)-3,4-dihydro-1,8-naphthyridine-1(2H)-carboxamide], for which the negative logarithm of the IC50 (pIC50) was 7.31 in experiment [1] (setting [4]) and 7.12 on Tel-FGFR4 (setting [5]).

`CN1CCN(Cc2cc3c(nc2C=O)N(C(=O)Nc2cc(OCC(F)F)c(C#N)cn2)CCC3)C(=O)C1` [N-(5-cyano-4-(2,2-difluoroethoxyl)pyridin-2-yl)-7-formyl-6-((4-methyl-2-oxopiperazin-1-yl)methyl)-3,4-dihydro-1,8-naphthyridine-1(2H)-carboxamide]: the pIC50 in experiment [1] (setting [4]) was 8.92; on Tel-FGFR4 (setting [5]), 8.17.

Consider `O=Cc1nc2c(cc1CO)CCCN2C(=O)Nc1ccc(F)cn1` [Example 76, N-(5-fluoropyridin-2-yl)-7-formyl-6-(hydroxymethyl)-3,4-dihydro-1,8-naphthyridine-1(2H)-carboxamide], for which the pIC50 in experiment [1] (setting [2]) was 6.21; at Tel-FGFR4 (setting [3]), 5.79 and < 5.52.

As to `N#Cc1cnc(NC(=O)N2CCCc3cc(CO)c(C=O)nc32)cc1OCC(O)CCCl` (racemic) [Example 60, N-(4-(4-chloro-2-hydroxybutoxy)-5-cyanopyridin-2-yl)-7-formyl-6-(hydroxymethyl)-3,4-dihydro-1,8-naphthyridine-1(2H)-carboxamide], the pIC50 in experiment [1] (setting [2]) is 9.10; on Tel-FGFR4 (setting [3]), 7.59.

In the case of `COCCNc1cc(NC(=O)N2CCCc3cc(CN4CCC(N(C)C)C4)c(C=O)nc32)ncc1C#N` (centres unmarked) [N-(5-cyano-4-((2-methoxyethyl)amino)pyridin-2-yl)-6-((3-(dimethylamino)pyrrolidin-1-yl)methyl)-7-formyl-3,4-dihydro-1,8-naphthyridine-1(2H)-carboxamide], the pIC50 in experiment [1] (setting [4]) is 9.30; on Tel-FGFR4 (setting [5]) it was 7.20.

As for `CC(C)Oc1cc(NC(=O)N2c3nc(C=O)c(Br)cc3CC[C@H]2C)ncc1C#N` [(R)-6-bromo-N-(5-cyano-4-isopropoxypyridin-2-yl)-7-formyl-2-methyl-3,4-dihydro-1,8-naphthyridine-1(2H)-carboxamide], the results for the pIC50 (in experiment [1] (setting [4]); on Tel-FGFR4 (setting [5])) were 7.68 and 6.77, respectively.

`COC(C)(C)CNc1cc(NC(=O)N2CCCc3cc(CN(C)C(C)=O)c(C=O)nc32)ncc1C#N` [N-(5-cyano-4-((2-methoxy-2-methylpropyl)amino)pyridin-2-yl)-7-formyl-6-((N-methylacetamido)methyl)-3,4-dihydro-1,8-naphthyridine-1(2H)-carboxamide]: the pIC50 in experiment [1] (setting [4]) is 9.15; on Tel-FGFR4 (setting [5]), 8.31.

Consider `O=Cc1nc2c(cc1CO)CCCN2C(=O)Nc1ncc(Cl)c(O[C@H]2CCOC2)n1` [Example 69, (S)-N-(5-chloro-4-((tetrahydrofuran-3-yl)oxy)pyrimidin-2-yl)-7-formyl-6-(hydroxymethyl)-3,4-dihydro-1,8-naphthyridine-1(2H)-carboxamide], for which the pIC50 in experiment [1] (setting [2]) was 7.27; on Tel-FGFR4 (setting [3]), 7.02.

With `CC(C)Oc1cc(NC(=O)N2c3nc(C=O)ccc3CCC2C)ncc1C#N` (centres unmarked) [N-(5-cyano-4-isopropoxypyridin-2-yl)-7-formyl-2-methyl-3,4-dihydro-1,8-naphthyridine-1(2H)-carboxamide], the pIC50 is 9.05 in experiment [1] (setting [4]) and 6.48 at Tel-FGFR4 (setting [5]).

As to `CC(C)Oc1cc(NC(=O)N2c3nc(C=O)c(Br)cc3CC[C@@H]2C)ncc1C#N` [(S)-6-bromo-N-(5-cyano-4-isopropoxypyridin-2-yl)-7-formyl-2-methyl-3,4-dihydro-1,8-naphthyridine-1(2H)-carboxamide], the pIC50 in experiment [1] (setting [4]) was 8.48; on Tel-FGFR4 (setting [5]) it was 7.02.

With `COCCNc1cc(NC(=O)N2CCCc3cc(-c4sc(C)nc4C)c(C=O)nc32)ncc1C#N` [N-(5-cyano-4-((2-methoxyethyl)amino)pyridin-2-yl)-6-(2,4-dimethylthiazol-5-yl)-7-formyl-3,4-dihydro-1,8-naphthyridine-1(2H)-carboxamide], the negative-log IC50 (pIC50) was 8.02 in experiment [1] (setting [4]) and 7.68 at Tel-FGFR4 (setting [5]).

In the case of `CC(C)Oc1cc(NC(=O)N2CCCc3cc(CN4C[C@@H](N(C)C)CC4=O)c(C=O)nc32)ncc1C#N` [(S)-N-(5-cyano-4-isopropoxypyridin-2-yl)-6-((4-(dimethylamino)-2-oxopyrrolidin-1-yl)methyl)-7-formyl-3,4-dihydro-1,8-naphthyridine-1(2H)-carboxamide], the pIC50 in experiment [1] (setting [4]) was 9.70; at Tel-FGFR4 (setting [5]), 7.95.

Turning to `CO[C@@H](C)COc1cc(NC(=O)N2CCCc3cc(CN4CCN(C)CC4=O)c(C=O)nc32)ncc1C#N` [(S)-N-(5-cyano-4-(2-methoxypropoxyl)pyridin-2-yl)-7-formyl-6-((4-methyl-2-oxopiperazin-1-yl)methyl)-3,4-dihydro-1,8-naphthyridine-1(2H)-carboxamide], the pIC50 is 8.66 in experiment [1] (setting [4]) and 7.97 at Tel-FGFR4 (setting [5]).

Turning to `CCc1cc(NC(=O)N2CCCc3cc(CN4CCN(C)CC4=O)c(C=O)nc32)ncc1C#N` [N-(5-cyano-4-ethylpyridin-2-yl)-7-formyl-6-((4-methyl-2-oxopiperazin-1-yl)methyl)-3,4-dihydro-1,8-naphthyridine-1(2H)-carboxamide], the results for the negative logarithm of the IC50 (pIC50) (in experiment [1] (setting [4]); on Tel-FGFR4 (setting [5])) were 8.05 and 7.65, respectively.

As for `COCCNc1cc(NC(=O)N2CCCc3cc(CN(C)C(C)=O)c(C=O)nc32)ncc1C(F)(F)F` [7-formyl-N-(4-((2-methoxyethyl)amino)-5-(trifluoromethyl)pyridin-2-yl)-6-((N-methylacetamido)methyl)-3,4-dihydro-1,8-naphthyridine-1(2H)-carboxamide], the figures for the negative-log IC50 (pIC50) (in experiment [1] (setting [4]); at Tel-FGFR4 (setting [5])) were 8.64 and 7.94, respectively.

As to `COC[C@@H](C)Nc1cc(NC(=O)N2CCCc3cc(C(F)F)c(C=O)nc32)ncc1C#N` [(R)-N-(5-cyano-4-((1-methoxypropan-2-yl)amino)pyridin-2-yl)-6-(difluoromethyl)-7-formyl-3,4-dihydro-1,8-naphthyridine-1(2H)-carboxamide], the figures for the pIC50 (in experiment [1] (setting [4]); on Tel-FGFR4 (setting [5])) were 8.92 and 7.72, respectively.

In the case of `CC(C)Oc1cc(NC(=O)N2CCCc3cc(CN4C[C@H](N(C)C)CC4=O)c(C=O)nc32)ncc1C#N` [(R)-N-(5-cyano-4-isopropoxypyridin-2-yl)-6-((4-(dimethylamino)-2-oxopyrrolidin-1-yl)methyl)-7-formyl-3,4-dihydro-1,8-naphthyridine-1(2H)-carboxamide], the negative-log IC50 (pIC50) in experiment [1] (setting [4]) is 9.52; on Tel-FGFR4 (setting [5]), 8.17.

In the case of `CN1CCN(Cc2cc3c(nc2C=O)N(C(=O)Nc2cc(OCCO)c(C#N)cn2)CCC3)C(=O)C1` [Example 199, N-(5-cyano-4-(2-hydroxyethoxyl)pyridin-2-yl)-7-formyl-6-((4-methyl-2-oxopiperazin-1-yl)methyl)-3,4-dihydro-1,8-naphthyridine-1(2H)-carboxamide], the pIC50 in experiment [1] (setting [2]) is 8.64; at Tel-FGFR4 (setting [3]), 7.71.

Consider `CCC(=O)N(C)Cc1cc2c(nc1C=O)N(C(=O)Nc1cc(OC(C)C)c(C#N)cn1)CCC2` [N-(5-cyano-4-isopropoxypyridin-2-yl)-7-formyl-6-((N-methylpropionamido)methyl)-3,4-dihydro-1,8-naphthyridine-1(2H)-carboxamide], for which the pIC50 is 9.05 in experiment [1] (setting [4]); 7.73 at Tel-FGFR4 (setting [5]); less than 5.52 at Tel-FGFR4 (measured and considered as outlier values, not included in the table or list, read-out: IC50 in the cellular BaF3 FGFR4 assay, outlier values).

In the case of `CN1CCN(Cc2cc3c(nc2C=O)N(C(=O)Nc2cc(NC(C)(C)C)c(C#N)cn2)CCC3)C(=O)C1` [N-(4-(tert-butylamino)-5-cyanopyridin-2-yl)-7-formyl-6-((4-methyl-2-oxopiperazin-1-yl)methyl)-3,4-dihydro-1,8-naphthyridine-1(2H)-carboxamide], the pIC50 in experiment [1] (setting [4]) was 8.74; at Tel-FGFR4 (setting [5]), 7.94.

Take `COC[C@@H](C)Nc1cc(NC(=O)N2CCCc3cc(CN4CCCC4=O)c(C=O)nc32)ncc1C#N` [(R)-N-(5-cyano-4-((1-methoxypropan-2-yl)amino)pyridin-2-yl)-7-formyl-6-((2-oxopyrrolidin-1-yl)methyl)-3,4-dihydro-1,8-naphthyridine-1(2H)-carboxamide]: the figures for the negative logarithm of the IC50 (pIC50) (in experiment [1] (setting [4]); at Tel-FGFR4 (setting [5])) were 9.22 and 8.32, respectively.

Consider `CCNc1cc(NC(=O)N2CCCc3cc(CN(C)C(=O)CN(C)C)c(C=O)nc32)ncc1C#N` [N-(5-cyano-4-(ethylamino)pyridin-2-yl)-6-((2-(dimethylamino)-N-methylacetamido)methyl)-7-formyl-3,4-dihydro-1,8-naphthyridine-1(2H)-carboxamide], for which the pIC50 in experiment [1] (setting [4]) is 9.70; at Tel-FGFR4 (setting [5]), 8.44.
